Test results published in PubChem BioAssay (NCI).
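1) Cells in 96-well plates. 2) Compound, 48 h, 5 concentrations. 3) Linear interpolation between surrounding doses. 4) Unreached endpoint = highest concentration. TGI marks complete inhibition of growth.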

Experiments:
Experiment in all cases: growth of human tumour cells (NCI), 48 h
MDA-N = tested on: MDA-N
CAKI-1 renal = tested on: CAKI-1 renal
HOP-92 NSCLC = tested on: HOP-92 NSCLC
IGROV1 ovarian = tested on: IGROV1 ovarian
NCI-H522 lung = tested on: NCI-H522 lung
COLO 205 colon = tested on: COLO 205 colon
SNB-19 CNS = tested on: SNB-19 CNS
T-47D breast = tested on: T-47D breast
A549 NSCLC = tested on: A549 NSCLC
UACC-257 melanoma = tested on: UACC-257 melanoma
SN12C renal = tested on: SN12C renal
UO-31 renal = tested on: UO-31 renal
HT29 colon = tested on: HT29 colon
SK-OV-3 ovarian = tested on: SK-OV-3 ovarian
OVCAR-8 ovarian = tested on: OVCAR-8 ovarian
NCI-H226 lung = tested on: NCI-H226 lung
MDA-MB-435 = tested on: MDA-MB-435
NCI/ADR-RES ovarian = tested on: NCI/ADR-RES ovarian
TK-10 renal = tested on: TK-10 renal
U251 CNS = tested on: U251 CNS

Measured: TGI

CCP(=O)(CC)C(Cl)Cl
> 100 µM: all assays above
